Laboratory results from article PMC7071059, “Targeting Receptor Tyrosine Kinase VEGFR-2 in Hepatocellular Cancer: Rational Design, Synthesis and Biological Evaluation of 1,2-Disubstituted Benzimidazoles” (Molecules, 2020).

Key:
Experiment in all cases: NCI 60 one dose (10 μM) anticancer assay
Type in all cases: cell-based
[1] = test system: LOX IMVI; conditions: Homo sapiens, 10 µM one dose, Melanoma, read-out: Growth Inhibition % LOX IMVI
Experimental: (§1) Some of the synthesized compounds were selected by the NCI, Bethesda, MD, USA for evaluation of their anticancer activity. An in vitro one dose (10 μM) anticancer assay was conducted on a full NCI 60-cell line panel derived from 9 different cancer types. Table 2 presents the percent of growth inhibition of some cell lines. […] K-562 and MOLT-4 from leukemia, NCI-H522 from non-small cell lung cancer, HCT-116 from colon cancer, SK-MEL-5 and UACC-62 from melanoma, UO-31 from renal cancer, PC-3 from prostate cancer and HS 578T and T-47D from breast cancer are the most sensitive cell lines to the tested compounds. No growth inhibition was observed from the selected compounds against COLO205, HCC-2998, MALME-3M, SK-MEL-28, DU-145 and BT-549 cell lines. […] Against UO-31 from renal cancer and PC-3 from prostate cancer, it inhibited the growth of 44% and 58% of the cancer cells, respectively.

[2] = test system: K-562; conditions: Homo sapiens, K562; 10 µM one dose; Leukemia; read-out: Growth Inhibition % K-562
Experimental: as §1

[3] = test system: RXF 393; conditions: Homo sapiens, 10 µM one dose, Renal Cancer, read-out: Growth Inhibition % RXF 393
Experimental: as §1

[4] = test system: HCT-116; conditions: Homo sapiens, 10 µM one dose, Colon Cancer, read-out: Growth Inhibition % HCT-116
Experimental: as §1

[5] = test system: SNB-75; conditions: Homo sapiens, 10 µM one dose, CNS Cancer, read-out: Growth Inhibition % SNB-75
Experimental: as §1

[6] = test system: A549/ATTC; conditions: Homo sapiens, 10 µM one dose, Non-small cell lung Cancer, read-out: Growth Inhibition % A549/ATTC
Experimental: as §1

[7] = test system: 786-0; conditions: Homo sapiens, 10 µM one dose, Renal Cancer, read-out: Growth Inhibition % 786-0
Experimental: as §1

[8] = test system: M14; conditions: Homo sapiens, 10 µM one dose, Melanoma, read-out: Growth Inhibition % M14
Experimental: as §1

[9] = test system: MDA-MB-231/ATTC; conditions: Homo sapiens, 10 µM one dose, Breast Cancer, read-out: Growth Inhibition % MDA-MB-231/ATTC
Experimental: as §1

[10] = test system: NCI-H322M; conditions: Homo sapiens, 10 µM one dose, Non-small cell lung Cancer, read-out: Growth Inhibition % NCI-H322M
Experimental: as §1

[11] = test system: SW-620; conditions: Homo sapiens, 10 µM one dose, Colon Cancer, read-out: Growth Inhibition % SW-620
Experimental: as §1

[12] = test system: KM12; conditions: Homo sapiens, 10 µM one dose, Colon Cancer, read-out: Growth Inhibition % KM12
Experimental: as §1

[13] = test system: HOP-62; conditions: Homo sapiens, 10 µM one dose, Non-small cell lung Cancer, read-out: Growth Inhibition % HOP-62
Experimental: as §1

[14] = test system: HCT-15; conditions: Homo sapiens, 10 µM one dose, Colon Cancer, read-out: Growth Inhibition % HCT-15
Experimental: as §1

[15] = test system: HS 578T; conditions: Homo sapiens, 10 µM one dose, Breast Cancer, read-out: Growth Inhibition % HS 578T
Experimental: as §1

[16] = test system: HL-60(TB); conditions: Homo sapiens, 10 µM one dose, Leukemia, read-out: Growth Inhibition % HL-60(TB)
Experimental: as §1

[17] = test system: CCRF-CEM; conditions: Homo sapiens, 10 µM one dose, Leukemia, read-out: Growth Inhibition % CCRF-CEM
Experimental: as §1

[18] = test system: NCI-H522; conditions: Homo sapiens, 10 µM one dose, Non-small cell lung Cancer, read-out: Growth Inhibition % NCI-H522
Experimental: as §1

[19] = test system: SNB-19; conditions: Homo sapiens, 10 µM one dose, CNS Cancer, read-out: Growth Inhibition % SNB-19
Experimental: as §1

[20] = test system: SF-268; conditions: Homo sapiens, 10 µM one dose, CNS Cancer, read-out: Growth Inhibition % SF-268
Experimental: as §1

[21] = test system: MDA-MB-468; conditions: Homo sapiens, 10 µM one dose, Breast Cancer, read-out: Growth Inhibition % MDA-MB-468
Experimental: as §1

[22] = test system: PC-3; conditions: Homo sapiens, 10 µM one dose, Prostate Cancer, read-out: Growth Inhibition % PC-3
Experimental: as §1

[23] = test system: U251; conditions: Homo sapiens, U-251; 10 µM one dose; CNS Cancer; read-out: Growth Inhibition % U251
Experimental: as §1

[24] = test system: UACC-62; conditions: Homo sapiens, 10 µM one dose, Melanoma, read-out: Growth Inhibition % UACC-62
Experimental: as §1

[25] = test system: OVCAR-5; conditions: Homo sapiens, 10 µM one dose, Ovarian Cancer, read-out: Growth Inhibition % OVCAR-5
Experimental: as §1

[26] = test system: A498; conditions: Homo sapiens, 10 µM one dose, Renal Cancer, read-out: Growth Inhibition % A498
Experimental: as §1

[27] = test system: MOLT-4; conditions: Homo sapiens, 10 µM one dose, Leukemia, read-out: Growth Inhibition % MOLT-4
Experimental: as §1

[28] = test system: MCF7; conditions: Homo sapiens, 10 µM one dose, Breast Cancer, read-out: Growth Inhibition % MCF7
Experimental: as §1

[29] = test system: OVCAR-8; conditions: Homo sapiens, 10 µM one dose, Ovarian Cancer, read-out: Growth Inhibition % OVCAR-8
Experimental: as §1

[30] = test system: MDA-MB-435; conditions: Homo sapiens, 10 µM one dose, Melanoma, read-out: Growth Inhibition % MDA-MB-435
Experimental: as §1

Row | SMILES | inhibition at 10 µM [1] | inhibition at 10 µM [2] | inhibition at 10 µM [3] | inhibition at 10 µM [4] | inhibition at 10 µM [5] | inhibition at 10 µM [6] | inhibition at 10 µM [7] | inhibition at 10 µM [8] | inhibition at 10 µM [9] | inhibition at 10 µM [10] | inhibition at 10 µM [11] | inhibition at 10 µM [12] | inhibition at 10 µM [13] | inhibition at 10 µM [14] | inhibition at 10 µM [15] | inhibition at 10 µM [16] | inhibition at 10 µM [17] | inhibition at 10 µM [18] | inhibition at 10 µM [19] | inhibition at 10 µM [20] | other results
1 | COc1cc(/C=N/NC(=O)Cn2c(-c3ccc(C)o3)nc3ccccc32)ccc1OCc1ccccc1 [Compound 17f, (E)-N′-(4-(Benzyloxy)-3-methoxybenzylidene)-2-(2-(5-methylfuran-2-yl)-1H-benzo[d]imidazol-1-yl)acetohydrazide] | < 10% | 34% | < 10% | 28% | 17% | 27% | < 10% | < 10% | 21% | < 10% | < 10% | 15% | < 10% | 26% | 30% | < 10% | 19% | 26% | 20% | 24% | inhibition at 10 µM [21]: 23%; inhibition at 10 µM [22]: 37%; inhibition at 10 µM [23]: < 10%; inhibition at 10 µM [24]: 22%; inhibition at 10 µM [25]: < 10%; inhibition at 10 µM [26]: 21%; inhibition at 10 µM [27]: 50%; inhibition at 10 µM [28]: 24%; inhibition at 10 µM [29]: 19%; inhibition at 10 µM [30]: < 10%
2 | COc1cc(/C=N/NC(=O)Cn2c(C(C)C)nc3ccccc32)ccc1OCc1ccccc1 [Compound 17e, (E)-N′-(4-(Benzyloxy)-3-methoxybenzylidene)-2-(2-isopropyl-1H-benzo[d]imidazol-1-yl)acetohydrazide] | < 10% | 25% | < 10% | < 10% | < 10% | < 10% | < 10% | < 10% | < 10% | < 10% | < 10% | < 10% | < 10% | < 10% | < 10% | < 10% | < 10% | 32% | < 10% | < 10% | inhibition at 10 µM [21]: < 10%; inhibition at 10 µM [22]: 20%; inhibition at 10 µM [23]: < 10%; inhibition at 10 µM [24]: 22%; inhibition at 10 µM [25]: < 10%; inhibition at 10 µM [26]: 22%; inhibition at 10 µM [27]: 22%; inhibition at 10 µM [28]: < 10%; inhibition at 10 µM [29]: < 10%; inhibition at 10 µM [30]: < 10%
